Experimental data: patent US5129937A, “Pyridyloxypyrimidine derivatives, preparation process thereof, and herbicidal compositions containing the same as active ingredients” (Mitsui Toatsu Chemicals Incorporated, priority 1989, dated 1992)

What was measured:
[1] = tested on: Foxtail (Setaria viridis); assay: Upland Foliar Application Test; assay type: in vivo; conditions: 30 g ai/a; foliar application at 2-3 leaf stage, emulsion; observed on the 30th day
Text: (§1) Resin-made 1/10000-are pots were filled with the soil of an upland field. Redroot pigweed, morningglory (Ipomoea pupurea), common lambsquarters, foxtail meadow, johnsongrass, barnyardgrass, green foxtail, large crabgrass, soybean, corn and cotton were separately seeded and were allowed to germinate in a green house. When each plant grew to the stage of 2-3 leaves, an emulsion formulated from a predetermined amount of each test compound in a similar manner to the method described in Formulation Example 11 was diluted with water and then sprayed at a predetermined application rate by means of a pressure-operated ULV (ultra low volume) sprayer. The application rate was controlled at 5 l per are. Influence to the crops and weeds were observed on the 30th day after the spray of the herbicides. The results are shown in Table 4 in which the degree of damages of each test plant and the degree of injury to each crop are shown in a similar manner to Test 2.

[2] = tested on: Crabgrass (Digitaria adsendens); assay: Upland Foliar Application Test; assay type: in vivo; conditions: 30 g ai/a; foliar application at 2-3 leaf stage, emulsion; observed on the 30th day
Text: as §1

Redroot Pigweed [3] = assay: Upland Foliar Application Test; assay type: in vivo; conditions: 30 g ai/a; foliar application at 2-3 leaf stage, emulsion; observed on the 30th day
Text: as §1

Common lambsquarters [4] = assay: Upland Foliar Application Test; assay type: in vivo; conditions: 30 g ai/a; foliar application at 2-3 leaf stage, emulsion; observed on the 30th day
Text: as §1

Johnsongrass [5] = assay: Upland Foliar Application Test; assay type: in vivo; conditions: 30 g ai/a; foliar application at 2-3 leaf stage, emulsion; observed on the 30th day
Text: as §1

Foxtail meadow [6] = assay: Upland Foliar Application Test; assay type: in vivo; conditions: 30 g ai/a; foliar application at 2-3 leaf stage, emulsion; observed on the 30th day
Text: as §1

[7] = tested on: Barnyardgrass (Echinochloa crus-galli); assay: Upland Foliar Application Test; assay type: in vivo; conditions: 30 g ai/a; foliar application at 2-3 leaf stage, emulsion; observed on the 30th day
Text: as §1

[8] = tested on: ALS (acetolactate synthase); assay: ALS (Acetolactate Synthase) Inhibition Test, pea enzyme; assay type: biochemical; conditions: enzymoreaction inhibition rate at 10 ppm (5 μg/0.5 ml)
Experimental: To determine the selectivity in enzyme level between crops and weeds, an ALS inhibition test was conducted using pea as a representative of broadleaf crops and barnyardgrass as a representative of gramineous weeds.
After seeds of pea and barnyardgrass were allowed to germinate at 25° C. for 8-14 days in a dark place, partially-purified suspensions (Suspensions A) of acetolactate syntase were separately obtained from seedlings in accordance with the method described in the literature, Plant Physiology, 75, 827-831. In a test tube, […], followed by the addition of 0.15 ml of a 20 mM K2 HPO4 solution and 0.25 ml of a reaction substrate medium which consisted of 40 mM of K2 HPO4, 40 mM of sodium pyruvate, 1 mM of TPP, 1 mM of MgCl2 and 20 μM of FAD so that 0.4 ml of a reaction solution (Solution B) was prepared. Added to 0.4 ml of Solution B was 0.1 ml of Suspension A. After the resultant mixture was shaken for 1 hour in a thermostat water bath controlled at 30° C., 50 μl of 6N sulfuric acid were added to terminate the reaction.
Next, the reaction-terminated liquid mixture was transferred into a thermostat water bath controlled at 60° C. and was heated for 15 minutes. Thereafter, 0.5 ml of a 0.5% creatine solution and 0.5 ml of a 5% alkaline α-naphthol solution were added, and the resultant mixture was maintained at 60° C. for 15 minutes. As a result, the test solution developed a pink-red color. After the above operation, the absorbance of the test solution at 525 nm was measured by a spectrophotometer (Absorbance 1 of Test Compound).
On the other hand, the absorbance (Absorbance 2 of Blank) of a solution obtained by subjecting a portion of Solution B, said portion being free of the test compound, to the above operation and the absorbance (Absorbance 3 of sulfuric acid terminated) of another solution obtained by subjecting another portion of Solution B, said portion containing 50 μl of 6N sulfuric acid as a test compound, were measured at the same time. […] [formula]

Soybean (Glycine max) = assay: Upland Soil Application Test, crop injury; assay type: in vivo; conditions: 30 g ai/a; soil application before emergence, wettable powder; observed 30 days later
Experimental: (§2) Resin-made 1/2500-are pots were filled with the soil of an upland field. After they were fertilized, soybean, corn and cotton were seeded and 2-3 cm soil covering was applied. Seeds of redroot pigweed, morningglory (Ipomoea purpurea), common lambsquarters, barnyardgrass, green foxtail, large crabgrass, foxtail meadow and johnsongrass had been uniformly mixed with the soil. They were allowed to germinate in a green house. One day later (before emergence of weeds), a wettable powder prepared from a predetermined amount of each test compound in a similar manner to the method described in Formulation Example 1 was diluted with water and then sprayed evenly at an application rate equal to 10 l per are onto the surface of the soil by means of a pressure-operated ULV (ultra low volume) sprayer. Influence to the crops and weeds were observed 30 days later. The results are shown in Table 3, in which the degree of damages of each test plant and the degree of injury to each crop were determined by comparing the air-dried weights of the test plant and crop with those of the corresponding plant and crop in untreated pots and are shown in accordance with the following standard: […]

[9] = tested on: Cotton (Gossypium indicum); assay: Upland Soil Application Test, crop injury; assay type: in vivo; conditions: 30 g ai/a; soil application before emergence, wettable powder; observed 30 days later
Experimental: as §2

Corn (Zea maize) = assay: Upland Soil Application Test, crop injury; assay type: in vivo; conditions: 30 g ai/a; soil application before emergence, wettable powder; observed 30 days later
Experimental: as §2

[10] = tested on: Foxtail (Setaria viridis); assay: Upland Soil Application Test; assay type: in vivo; conditions: 30 g ai/a; soil application before emergence, wettable powder; observed 30 days later
In short: (§3)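 Upland field soil in pots, fertilized; crops sown under 2-3 cm soil cover, weed seeds mixed into the soil, kept in a greenhouse. One day after sowing, before weed emergence, wettable-powder formulations diluted in water were sprayed onto the soil surface at 10 l per are. Injury was scored after 30 days from air-dried weight versus untreated pots.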

Redroot Pigweed [11] = assay: Upland Soil Application Test; assay type: in vivo; conditions: 30 g ai/a; soil application before emergence, wettable powder; observed 30 days later
In short: as §3

Common lambsquarters [12] = assay: Upland Soil Application Test; assay type: in vivo; conditions: 30 g ai/a; soil application before emergence, wettable powder; observed 30 days later
In short: as §3

Johnsongrass [13] = assay: Upland Soil Application Test; assay type: in vivo; conditions: 30 g ai/a; soil application before emergence, wettable powder; observed 30 days later
In short: as §3

Foxtail meadow [14] = assay: Upland Soil Application Test; assay type: in vivo; conditions: 30 g ai/a; soil application before emergence, wettable powder; observed 30 days later
In short: as §3

[15] = tested on: Barnyardgrass (Echinochloa crus-galli); assay: Upland Soil Application Test; assay type: in vivo; conditions: 30 g ai/a; soil application before emergence, wettable powder; observed 30 days later
In short: as §3

SMILES | Herbicidal effects Foxtail (Setaria viridis) [1] | Herbicidal effects Crabgrass (Digitaria adsendens) [2] | Herbicidal effects Redroot Pigweed (Redroot Pigweed [3]) | Herbicidal effects Common lambquarters (Common lambsquarters [4]) | Herbicidal effects Johnsongrass (Johnsongrass [5]) | Herbicidal effects Foxtail meadow (Foxtail meadow [6]) | Herbicidal effects Barnyardgrass (Echinochloa crus-galli) [7] | Inhibition rate (%) Pea [8] | Crop injury Soybean (Glycine max) (Soybean (Glycine max)) | Crop injury Cotton (Gossypium indicum) [9] | Crop injury Corn (Zea maize) (Corn (Zea maize)) | Herbicidal effects Foxtail (Setaria viridis) [10] | Herbicidal effects Redroot Pigweed (Redroot Pigweed [11]) | Herbicidal effects Common lambquarters (Common lambsquarters [12]) | Herbicidal effects Johnsongrass (Johnsongrass [13]) | Herbicidal effects Foxtail meadow (Foxtail meadow [14]) | Herbicidal effects Barnyardgrass (Echinochloa crus-galli) [15]
COc1cc(OC)nc(Oc2cccnc2C2OCC(C)O2)n1 (stereo not shown) [Compound No. 7] | 5 (0-5 (Death)) | 4 (6-10 (Severe damages)) | 5 (0-5 (Death)) | 4 (6-10 (Severe damages)) | 5 (0-5 (Death)) | 5 (0-5 (Death)) | 5 (0-5 (Death)) | 0% | 0 (91-100 (No damages)) | 0 (91-100 (No damages)) | 0 (91-100 (No damages)) | 5 (0-5 (Death)) | 4 (6-10 (Severe damages)) | 4 (6-10 (Severe damages)) | 5 (0-5 (Death)) | 4 (6-10 (Severe damages)) | 5 (0-5 (Death))
COc1cc(OC)nc(Oc2cccnc2C(OC)OC)n1 [Compound No. 2, 3-(4.6-dimethoxy-2-pyrimidinyloxy)-2-pyridinecarboxaldehyde dimethylacetal] | 4 (6-10 (Severe damages)) | 4 (6-10 (Severe damages)) | 5 (0-5 (Death)) | 4 (6-10 (Severe damages)) | 5 (0-5 (Death)) | 4 (6-10 (Severe damages)) | 4 (6-10 (Severe damages)) | 0% | 0 (91-100 (No damages)) | 0 (91-100 (No damages)) | 0 (91-100 (No damages)) | 5 (0-5 (Death)) | 4 (6-10 (Severe damages)) | 5 (0-5 (Death)) | 5 (0-5 (Death)) | 5 (0-5 (Death)) | 4 (6-10 (Severe damages))
CCOC(=O)c1ncccc1Oc1nc(OC)cc(OC)n1 [A, reference compound] | 5 (0-5 (Death)) | 4 (6-10 (Severe damages)) | 4 (6-10 (Severe damages)) | 4 (6-10 (Severe damages)) | 5 (0-5 (Death)) | 5 (0-5 (Death)) | 5 (0-5 (Death)) | 52% | 5 (0-5 (Death)) | 5 (0-5 (Death)) | 5 (0-5 (Death)) | 5 (0-5 (Death)) | 4 (6-10 (Severe damages)) | 4 (6-10 (Severe damages)) | 5 (0-5 (Death)) | 5 (0-5 (Death)) | 3 (11-40 (Medium damages))
COc1cc(OC)nc(Oc2cccnc2C2OCCO2)n1 [Compound No. 6] | 4 (6-10 (Severe damages)) | 4 (6-10 (Severe damages)) | 5 (0-5 (Death)) | 4 (6-10 (Severe damages)) | 5 (0-5 (Death)) | 5 (0-5 (Death)) | 4 (6-10 (Severe damages)) | 0% | 0 (91-100 (No damages)) | 0 (91-100 (No damages)) | 0 (91-100 (No damages)) | 4 (6-10 (Severe damages)) | 4 (6-10 (Severe damages)) | 4 (6-10 (Severe damages)) | 5 (0-5 (Death)) | 4 (6-10 (Severe damages)) | 3 (11-40 (Medium damages))
COc1cc(OC)nc(Oc2ccccc2C=O)n1 [B, reference compound] | 4 (6-10 (Severe damages)) | 4 (6-10 (Severe damages)) | 3 (11-40 (Medium damages)) | 3 (11-40 (Medium damages)) | 4 (6-10 (Severe damages)) | 4 (6-10 (Severe damages)) | 4 (6-10 (Severe damages)) | 72% | 5 (0-5 (Death)) | 5 (0-5 (Death)) | 5 (0-5 (Death)) | 4 (6-10 (Severe damages)) | 3 (11-40 (Medium damages)) | 3 (11-40 (Medium damages)) | 4 (6-10 (Severe damages)) | 4 (6-10 (Severe damages)) | 3 (11-40 (Medium damages))
